Laboratory results as given in patent US11912710B2 (UPPTHERA, INC., priority 2021, dated 2024).
Like-named read-outs stand apart in the source and are kept apart here.

What was measured:
Format in all cases: cell-based
[1] = test system: MRC-5 cell line; test: Cell viability assay (cytotoxicity) for MRC-5 cell line; conditions: for IC50: Homo sapiens, MRC5, 120 h
Method: 4. Cell Viability Assay for MRC-5 Cell Line
(1) Culture of MRC-5 Cell Line
Passage of cultured cells was maintained within P15.
(2) Treatment of Compounds of the Present Invention
Then, it was cultured in 37° C.
(3) Cytotoxicity Experiment
CO2 incubator for 4 hours.
Cell Viability Assay for MRC-5 cell line

[2] = test system: NCI-H526 cell line; test: Cell viability assay for H526 cell line; conditions: Homo sapiens, NCI-H526, 120 h; H526 cells, 5 days, EZ-Cytox, 3000 nM to 0.46 nM
Method: 3. Cell Viability Assay for H526 Cell Line
(1) Culture of NCI-H526 Cell Line
(2) Treatment of Compounds of the Present Invention and Method of Cell Viability Assay
After treating the compound to each well to make the total volume of 200 μL, it was cultured in a CO2 incubator (Thermo Fisher Science, Cat. No. 4111) for 5 days.
The absorbance of the completely cultured sample was measured by setting the wavelength of a plate reader (BMG Labtech, CLARIOstar Plus) to […], and was measured after shaking for 3 minutes in a plate reader before measurement.
In Table 3, Activity represents IC50 value of each Exemplary Compound treatment group to H526 cell line (A: <30 nM, B: <50 nM, C: <100 nM, D: <200 nM, E: <400 nM).

[3] = biological target: T1, PLK1 (Homo sapiens, UniProt P53350); test: Luciferase assay for PLK1 in HeLa LgBit (Plk1-HiBit KI) cell line; conditions: 300 nM compound, luminescence after 9 hours, read-out: Activity: ratio of the luminescense value of compound treatment group to DMSO treatment group
T1 construct: endogenous in cells; host or cells: HeLa LgBit (Plk1-HiBit KI): HeLa cells stably expressing LgBit, with HiBit knocked into the endogenous Plk1 locus by CRISPR/Cas9
T1 sequence (P53350 whole entry): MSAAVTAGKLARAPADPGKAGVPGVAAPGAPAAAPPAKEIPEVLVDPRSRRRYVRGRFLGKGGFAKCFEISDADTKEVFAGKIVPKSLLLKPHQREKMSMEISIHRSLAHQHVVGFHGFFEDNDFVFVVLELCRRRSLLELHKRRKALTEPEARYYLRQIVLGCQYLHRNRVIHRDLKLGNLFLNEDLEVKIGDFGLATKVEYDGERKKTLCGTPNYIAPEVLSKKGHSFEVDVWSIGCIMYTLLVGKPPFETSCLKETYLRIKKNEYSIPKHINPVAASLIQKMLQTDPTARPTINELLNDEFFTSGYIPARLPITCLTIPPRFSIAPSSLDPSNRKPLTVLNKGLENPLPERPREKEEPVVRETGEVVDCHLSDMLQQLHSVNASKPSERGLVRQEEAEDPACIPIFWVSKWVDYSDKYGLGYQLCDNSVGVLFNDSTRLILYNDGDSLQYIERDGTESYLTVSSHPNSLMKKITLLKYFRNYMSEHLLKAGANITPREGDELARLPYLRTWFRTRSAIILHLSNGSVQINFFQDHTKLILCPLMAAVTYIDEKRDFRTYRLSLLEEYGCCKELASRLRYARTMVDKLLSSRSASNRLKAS
Method: 2. Luciferase Assay for PLK1
(1) Preparation and Culture of HeLa LgBit (Plk1-HiBit KI) Cell Line
A HeLa cell line in which the LgBit vector was transfected and expressed stably was prepared. Then, after constructing gRNA and donor to express the HiBit amino acid sequence behind the C-terminal of the Plk1 gene, which was inherent in the cell, it was inserted into the cell together with a vector capable of expressing CRISPR/Cas9. Only the cells in which the insertion was completed and knock-in had progressed were selected, sub-cultured and used.
(2) Treatment of Compounds of the Present Invention and Method of Luciferase Assay
In the case of HeLa LgBit (Plk1-HiBit KI), the compounds were treated after being released after thymidine block, and the process was as follows. Thymidine (Sigma-Aldrich Cat. No. T9250-5G) was completely dissolved in DW and used in the experiment. For thymidine block, the products were treated with 2 mM of thymidine and then incubated for 24 hours. For release and chemical treatment, the medium was suctioned and washed with 1×PBS. TrypLE™ was added and incubated in 37° C. CO2 incubator for 5 min. Cells neutralized by adding complete media were counted through a counter. For each well of a 96-well culture plate (SPL), 3.3×10^4 cells and a total medium volume of 150 μL were seeded and incubated in a CO2 incubator.
Each cell line was incubated in a CO2 incubator for 18 hours, and Endurazine was added to each well to make up 4% of the total volume. After adding the compound of the present invention in a 96-well white plate (SPL) to a concentration of 300 nM, the wavelength of the plate reader (BMG Labtech, CLARIOstar Plus) was set to […], and then the luminescence was tracked in real time.
In Table 2, Activity represents the ratio of the luminescense value of each Exemplary Compound treatment group to DMSO treatment group (+++: <0.3, ++<0.6, +<0.7).

[4] = MRC-5 normal cell line, 5 days, EZ-Cytox, 10000 nM to 1.52 nM, read-out: Activity: IC50 value to MRC-5 cell line (Exemplary Compounds)
[5] = read-out: Activity: IC50 value to MRC-5 cell line (Comparative Compounds)

Compound	IC50 [2]	remaining activity at 0.3 µM [3]	other results
COc1cc(C(=O)NC2CCN(CCOCCOCCOCCOCCNc3ccc(C4CCC(=O)NC4=O)cc3)CC2)c(F)cc1Nc1ncc2c(n1)N(C1CCCC1)CC(F)(F)C(=O)N2C (stereo not shown) [Compound 1, 4-((9-cyclopentyl-7,7-difluoro-5-methyl-6-oxo-6,7,8,9-tetrahydro-5H-pyrimido[4,5-b][1,4]diazepin-2-yl)amino)-N-(1-(14-((4-(2,6-dioxopiperidin-3-yl)phenyl)amino)-3,6,9,12-tetraoxatetradecyl)piperidin-4-yl)-2-fluoro-5-methoxybenzamide]	< 50 nM	< 60%	IC50 [1, 4]: 25600 nM
CC[C@@H]1C(=O)N(C)c2cnc(Nc3ccc(C(=O)NCCOCCOCCNc4cccc5c4C(=O)N(C4CCC(=O)NC4=O)C5=O)cc3OC)nc2N1C1CCCC1 (stereo partly shown) [Comparative Compound 1, reference compound]			IC50 ([1]; MRC-5 normal cell line, 5 days, EZ-Cytox, 10000 nM to 1.52 nM, read-out: Activity: IC50 value to MRC-5 cell line (Comparative Compounds)): 107 nM; cytotoxicity in normal cell line ([1]; MRC-5 normal cell line, statement in words): high level of cytotoxicity
COc1cc(C(=O)NC2CC3(CCN(C[C@@H]4CCN(c5ccc(C6CCC(=O)NC6=O)cc5F)C[C@@H]4F)CC3)C2)ccc1Nc1ncc2c(n1)N(C1CCCC1)CC(F)(F)C(=O)N2C (stereo partly drawn) [Compound 46, −((9-cyclopentyl-7,7-difluoro-5-methyl-6-oxo-6,7,8,9-tetrahydro-5H-pyrimido[4,5-b][1,4]diazepin-2-yl)amino)-N-(7-(((3R,4S)-1-(4-(2,6-dioxopiperidin-3-yl)-2-fluorophenyl)-3-fluoropiperidin-4-yl)methyl)-7-azaspiro[3.5]nonan-2-yl)-3-methoxybenzamide]		< 30%	
COc1cc(C(=O)NC2CCN(C(=O)CCN3CCN(c4ccc(C5CCC(=O)NC5=O)cc4)CC3)CC2)ccc1Nc1ncc2c(n1)N(C1CCCC1)CC(F)(F)C(=O)N2C (stereo not shown) [Compound 5, 4-((9-cyclopentyl-7,7-difluoro-5-methyl-6-oxo-6,7,8,9-tetrahydro-5H-pyrimido[4,5-b][1,4]diazepin-2-yl)amino)-N-(1-(3-(4-(4-(2,6-dioxopiperidin-3-yl)phenyl)piperazin-1-yl)propanoyl)piperidin-4-yl)-3-methoxybenzamide]	< 30 nM	< 60%	IC50 [1, 4]: > 10000 nM
COc1cc(C(=O)NC2CC23CCN(CC2CCN(c4ccc(C5CCC(=O)NC5=O)cc4F)CC2)CC3)ccc1Nc1ncc2c(n1)N(C1CCCC1)CC(F)(F)C(=O)N2C (stereo not shown) [Compound 23, 4-((9-cyclopentyl-7,7-difluoro-5-methyl-6-oxo-6,7,8,9-tetrahydro-5H-pyrimido[4,5-b][1,4]diazepin-2-yl)amino)-N-(6-((1-(4-(2,6-dioxopiperidin-3-yl)-2-fluorophenyl)piperidin-4-yl)methyl)-6-azaspiro[2.5]octan-1-yl)-3-methoxybenzamide]	< 30 nM	< 30%	
COc1cc(C(=O)NN2CCC(N3CC4(CCN(c5ccc(C6CCC(=O)NC6=O)cc5F)CC4)C3)CC2)ccc1Nc1ncc2c(n1)N(C1CCCC1)CC(F)(F)C(=O)N2C (stereo not shown) [Compound 18, 4-((9-cyclopentyl-7,7-difluoro-5-methyl-6-oxo-6,7,8,9-tetrahydro-5H-pyrimido[4,5-b][1,4]diazepin-2-yl)amino)-N-(4-(7-(4-(2,6-dioxopiperidin-3-yl)-2-fluorophenyl)-2,7-diazaspiro[3.5]nonan-2-yl)piperidin-1-yl)-3-methoxybenzamide]	< 30 nM	< 60%	
CC[C@@H]1C(=O)N(C)c2cnc(Nc3ccc(C(=O)N[C@H]4CC[C@H](N5CCN(CC6CC6)CC5)CC4)cc3OC)nc2N1C(C)C [Comparative Compound 3, Volasertib, reference compound]			IC50 [1, 5]: 2940 nM
COc1cc(C(=O)NN2CC3(CCN(CC4CCN(c5ccc(C6CCC(=O)NC6=O)cc5F)CC4)CC3)C2)ccc1Nc1ncc2c(n1)N(C1CCCC1)CC(F)(F)C(=O)N2C (stereo not shown) [Compound 44]	< 30 nM	< 60%	
CC[C@@H]1C(=O)N(C)c2cnc(Nc3ccc(C(=O)NC4CCN(C)CC4)cc3OC)nc2N1C1CCCC1 [Comparative Compound 2, BI2536, reference compound]			IC50 [1, 5]: 3090 nM
COc1cc(C(=O)NC2CCN(C3CN(c4ccc(C5CCC(=O)NC5=O)cc4F)C3)CC2)ccc1Nc1ncc2c(n1)N(C1CCCC1)CC(F)(F)C(=O)N2C (stereo not shown) [Compound 42, 4-((9-cyclopentyl-7,7-difluoro-5-methyl-6-oxo-6,7,8,9-tetrahydro-5H-pyrimido[4,5-b][1,4]diazepin-2-yl)amino)-N-(1-(1-(4-(2,6-dioxopiperidin-3-yl)-2-fluorophenyl)azetidin-3-yl)piperidin-4-yl)-3-methoxybenzamide]	< 30 nM	< 30%	
COc1cc(C(=O)NN2CCC(C3CN(c4ccc(C5CCC(=O)NC5=O)cc4F)C3)CC2)ccc1Nc1ncc2c(n1)N(C1CCCC1)CC(F)(F)C(=O)N2C (stereo not shown) [Compound 43, 4-((9-cyclopentyl-7,7-difluoro-5-methyl-6-oxo-6,7,8,9-tetrahydro-5H-pyrimido[4,5-b][1,4]diazepin-2-yl)amino)-N-(4-(1-(4-(2,6-dioxopiperidin-3-yl)-2-fluorophenyl)azetidin-3-yl)piperidin-1-yl)-3-methoxybenzamide]	< 50 nM	< 60%	
COc1cc(C(=O)NC2CC3(CCN(CC4CCN(c5cccc(C6CCC(=O)NC6=O)c5)CC4)CC3)C2)ccc1Nc1ncc2c(n1)N(C1CCCC1)CC(F)(F)C(=O)N2C (stereo not shown) [Compound 41, 4-((9-cyclopentyl-7,7-difluoro-5-methyl-6-oxo-6,7,8,9-tetrahydro-5H-pyrimido[4,5-b][1,4]diazepin-2-yl)amino)-N-(7-((1-(3-(2,6-dioxopiperidin-3-yl)phenyl)piperidin-4-yl)methyl)-7-azaspiro[3.5]nonan-2-yl)-3-methoxybenzamide]	< 30 nM	< 60%	
COc1cc(C(=O)NC2CC3(CCN(CC4CCN(c5cccc(N6CCC(=O)NC6=O)c5)CC4)CC3)C2)ccc1Nc1ncc2c(n1)N(C1CCCC1)CC(F)(F)C(=O)N2C [Compound 34, 4-((9-cyclopentyl-7,7-difluoro-5-methyl-6-oxo-6,7,8,9-tetrahydro-5H-pyrimido[4,5-b][1,4]diazepin-2-yl)amino)-N-(7-((1-(3-(2,4-dioxotetrahydropyrimidin-1(2H)-yl)phenyl)piperidin-4-yl)methyl)-7-azaspiro[3.5]nonan-2-yl)-3-methoxybenzamide]	< 30 nM	< 60%	
COc1cc(OCC2CC3(CCN(CC4CCN(c5ccc(C6CCC(=O)NC6=O)cc5F)CC4)CC3)C2)ccc1Nc1ncc2c(n1)N(C1CCCC1)CC(F)(F)C(=O)N2C (stereo not shown) [Compound 17, 3-(4-(4-((2-((4-((9-cyclopentyl-7,7-difluoro-5-methyl-6-oxo-6,7,8,9-tetrahydro-5H-pyrimido[4,5-b][1,4]diazepin-2-yl)amino)-3-methoxyphenoxy)methyl)-7-azaspiro[3.5]nonan-7-yl)methyl)piperidin-1-yl)-3-fluorophenyl)piperidine-2,6-dione]	< 200 nM	< 30%	
COc1cc(C(=O)NC2CCN(C)CC2)c(F)cc1Nc1ncc2c(n1)N(C1CCCC1)CC(F)(F)C(=O)N2C [Comparative Compound 4, TAK960, reference compound]			IC50 [1, 5]: 9150 nM
